# Source: US12048720B2, “Compositions comprising bacterial strains” (CJ BIOSCIENCE, INC., priority 2017, dated 2024)
# System: SH-SY5Y neuroblastoma cells
# Assay: Neuroprotection / cell viability of differentiated SH-SY5Y neuroblastoma cells with or without MPP (CCK-8)
# Format: cell-based, human
# Conditions: RA-differentiated SHSY-5Y cells treated with MPP+, FIG. 11
# Method: Neuroblastoma cells were treated with compositions comprising bacterial strains according to the invention. The SH-SY5Y neuroblastoma cells used are dopamine producing and well-established as an in vitro model for studying neurodegenerative diseases. The ability of the bacterial strains to increase neuroproliferation was observed. The neuroblastoma cells were treated also treated dopaminergic neurotoxin 1-methyl-4-phenylpyridinium (MPP), which induces permanent symptoms of Parkinson's disease in neuroblastoma cells. The ability of the bacterial strains to act as a neuroprotectant against MPP was investigated.
# SH-SY5Y neuroblastoma cells were purchased from ECCACC (Cat. no: 94030304) and were grown in MEM (Sigma Aldrich, cat n. M2279) supplemented with Nutrient Mixture F-12 Ham (Sigma Aldrich, cat n. N4888).
# Once grown the SH-SY5Y neuroblastoma cells were plated on 96-well plate at 11,000 cells/well and incubated for 2 days. […] Cell viability was measured by using CCK-8 reagent (Sigma Aldrich, Cell Counting Kit—8, cat. n. 96992-3000TESTS-F) and read at 450 nm wavelength.
# RA-differentiated SHSY-5Y cells were treated with MPP+, the active metabolite of MPTP, a chemical widely used to mimic in vitro and in vivo some of the features of PD pathology. Cell viability was measured as the rate of mitochondria respiration (FIG. 11).
compound,measurement,value
O=c1c(O)c(-c2ccc(O)c(O)c2)oc2cc(O)cc(O)c12 [quercetin],protection compared to YCFA-MPP+ treated sample,about 20%
